# In ChEMBL document CHEMBL3507680, “University of Dundee, Gates Library screen for HepG2 cell viability”:
# Experiment: Human HepG2 cell viability assay in 384 well format
# Format: toxicity, cell-based
# Parameters: dose 125 nL, time 70.5 hour; concentration not given beside the values
# Details: HepG2 cells, read-out: Inhibition
row,SMILES,cytotoxicity at 70.5 h [%]
1,CN(C)C(=O)c1cc(NC(=O)N2CCCC(C(F)(F)F)C2)ccn1 (stereo unspecified),-1.06
2,CN1CCc2[nH]cnc2C12CCN(C(=O)c1noc3c1CCCC3)CC2,-10.9
3,CC1CCCCN1c1nc2c(c(=O)[nH]1)CCN(Cc1ccccn1)C2 (stereo unspecified),3.45
4,c1cncc(CN2CCC3(CC2)CC(c2cccnc2)CO3)c1 (stereo unspecified),-6.23
5,O=C(Cc1ccccc1)N1CCN(Cc2noc(C3CC3)n2)CC1,-1.85
6,CN1CCCC2(CCN(C(=O)Cn3ncc4ccccc4c3=O)C2)C1=O (stereo unspecified),9.09
7,COc1ccccc1CN(CC1CCCO1)C(=O)c1cc(C)n[nH]1 (stereo unspecified),-14.4
8,O=C(CN1CCOC(Cn2cccn2)C1)Nc1cccnc1 (stereo unspecified),31.9
9,COc1cc(CNCCn2cc(C)cn2)cc2c1OCCO2,1.39
10,Nc1cc(C(=O)N2C[C@H]3CC[C@@H]2CN(Cc2cccnc2)C3)ccn1,-6.5
11,N#Cc1cccnc1OC1CCN(S(=O)(=O)c2ccc(Br)cc2)CC1,-12.9
12,CN(Cc1ccoc1)C(=O)C1(Oc2ccc(Cl)cc2)CCNCC1,-6.31
13,CC(C)CC(C)NC1CCN(c2cccc(-c3cscn3)c2)CC1 (stereo unspecified),-8.68
14,Cc1ccccc1S(=O)(=O)N1CCc2c(ncnc2N(C)C)C1,0.46
15,Cc1cc(-c2nccs2)nc(C2CCN(Cc3ccncc3)CC2)n1,-0.926
16,Cn1nc(C2CCCN(Cc3ccsc3)C2)c2nccnc21 (stereo unspecified),-0.972
17,C[C@@H]1CN(CCc2ccccc2)C[C@]12CCN(CC(=O)N(C)C)C2=O,-12.6
18,CCn1cc(NC(=O)NC2CCCc3c2cnn3CCO)cn1 (stereo unspecified),-2.96
19,CO[C@H]1CCN(S(=O)(=O)c2cn(C)cn2)[C@H]1Cc1ccncc1,-0.309
20,Cc1cccc(C)c1OCC(C)Nc1nc(N)nc2c1CCNC2 (stereo unspecified),-11.5
21,COc1ccccc1-c1noc(CN2CCCC2Cn2cccn2)n1 (stereo unspecified),12.5
22,O=C(NC1CCCC1)C1Cc2nc(-c3ccsc3)sc2N1CC1CC1 (stereo unspecified),9.52
23,CC(C)Oc1ccc(CNC(=O)NCC(C)(C)C(N)=O)cc1F,-5.2
24,CC(C)Nc1nc(C(=O)Nc2ccccn2)cs1,-13.8

row,SMILES,cytotoxicity at 70.5 h [%]
1,CCNc1cc2c(nn1)CCN(C(=O)Cc1ccc(C)nc1)C2,-6.5
2,CCN(C)CC(=O)N1CCN(Cc2ccccc2)[C@@H]2CS(=O)(=O)C[C@@H]21,2.14
3,COc1c(C2CCCN2C(=O)c2cc(C3CC3)on2)c(C)nn1C (stereo unspecified),-5.95
4,CCn1cnnc1CNS(=O)(=O)N1CCCC1c1ccc(C)o1 (stereo unspecified),-4.31
5,CCOc1ccnc(N2CCCN(c3nc(CC)ns3)CC2)n1,-2.91
6,FC(F)(F)CCN(Cc1ccon1)C1CCCC1,-7.02
7,Cc1noc(C2CCN(C(=O)c3c(C)noc3C)CC2)n1,-10.7
8,Cn1ncc2cnn(CC(O)COc3cccc4[nH]ccc34)c2c1=O (stereo unspecified),39.5
9,CCC(CC)NC(=O)NCc1ccnc(-n2ccnc2C)c1,-2.5
10,Cc1nn2cc(CNc3nccc(CCC(F)(F)F)n3)nc2s1,-9.54
11,CCNC(=O)N1CCC(NC(=O)NCCc2cc3ccccc3o2)C1 (stereo unspecified),11.5
12,CC(C)Cc1nc(CN(C)CCOc2ccc(F)cc2)no1,-8.43
13,CCc1nc(C2CCCN(C(=O)c3ccccc3Cl)C2)no1 (stereo unspecified),-1.75
14,Cc1cnn(CCNCC(=O)NCCOc2ccccc2)c1,39.9
15,O=C(O)COCC(=O)NC1CC2(CCCCC2)Oc2ccccc21 (stereo unspecified),18.3
16,CC(C)c1nc(C2CCCN2Cc2ccon2)no1 (stereo unspecified),-10.9
17,CCc1n[nH]c(C2CN(C(=O)c3ncoc3CC)CCO2)n1 (stereo unspecified),-13.4
18,Cc1cccc(C(=O)N2CCSCC2)c1NC(=O)c1ccsc1,-8.36
19,CNC(=O)NC(=O)C(NCc1cccs1)c1ccccc1 (stereo unspecified),34.4
20,O=C(Cc1cnc(-n2cccc2)s1)NCCCO,-25
21,Cc1nc(C2CCCN2CC(=O)NCCc2ccc(Cl)cc2)no1 (stereo unspecified),-2.31
22,CCCc1n[nH]c(C2CN(C(=O)CCCn3ccnc3C)CCO2)n1 (stereo unspecified),4.08
23,CCn1/c(=N/C(=O)CSCC(=O)Nc2nccs2)sc2ccccc21,-0.443
24,Cc1ccccc1C1(C(=O)NCCN2CCCCC2C)CCOCC1 (stereo unspecified),-6.68

row,SMILES,cytotoxicity at 70.5 h [%]
1,Cn1nc(CNC(=O)C2CCCCC2)cc1C1CC1,33
2,NS(=O)(=O)CCNC(=O)c1ccc(-c2ccc(F)cc2)cc1F,-6.9
3,COc1ccc2c(c1)CCCC2CC(=O)NCC(C)(C)C(=O)O (stereo unspecified),-10.7
4,CC(C)C(=O)NCc1ccc(N2CCCC2)nc1,-3.37
5,COCCCN1C(=O)CC[C@H]2CN(Cc3ccc4occc4c3)CC[C@H]21,26.4
6,CC(C)c1csc(C2CCCN(C(=O)c3ccc(=O)n(C)n3)C2)n1 (stereo unspecified),1.7
7,COCCN(Cc1ccccc1)Cc1nc(-c2ccsc2)no1,-3.79
8,Cc1cnn(CCC(=O)N2CCCN(c3ncccc3C#N)CC2)c1,0.758
9,O=C(Cc1ccsc1)N1C[C@@H]2CN(Cc3ccoc3)CCO[C@@H]2C1,-11.4
10,CCn1c(CC2CCN(S(=O)(=O)c3cccs3)CC2)nn(C)c1=O,10.6
11,CCN1CCCC(CNC(=O)CCc2ccc(OC)c(F)c2)C1 (stereo unspecified),-14.6
12,COc1ccccc1C(O)CNc1c(C#N)c(=O)n(C)c(=O)n1C (stereo unspecified),-0.895
13,Cc1csc(N2CCCN(C(=O)CCNc3ncccn3)CC2)n1,-0.695
14,O=C(CCc1ccco1)Nc1ccc(Br)cn1,28.6
15,O=c1c(-c2ccnc(NC3CCOCC3)n2)cnc2sc(Cl)cn12,1.36
16,Cc1c(C(=O)O)nnn1Cc1cccc(C(F)(F)F)c1,-12.7
17,COc1c(C2CCCN2C(=O)c2ccc(O)nc2)c(C)nn1C (stereo unspecified),-8.59
18,CC(=O)N1CCOC(CCc2cc(-c3c(C)noc3C)ncn2)C1 (stereo unspecified),-0.21
19,CN(Cc1nnc(C2CC2)n1C)C1CCN(CCc2ccccc2)C1 (stereo unspecified),-3.03
20,CC(=O)N1CCC(Nc2cccc(OC(F)F)c2C)CC1,-7.15
21,COc1coc(CN2CCCC3(CCC(=O)N(C4CC4)C3)C2)cc1=O (stereo unspecified),-12.4
22,CSc1ccc(CNCCS(=O)(=O)N2CCOCC2)cc1,-3.35
23,COc1c(C2CCCN2C(=O)c2csc(C(C)C)n2)c(C)nn1C (stereo unspecified),-12.3
24,COCCn1cc(CC(=O)Nc2nc[nH]n2)c2ccccc21,-6.37

row,SMILES,cytotoxicity at 70.5 h [%]
1,Cc1ccc(OCCNC(=O)C2CCOCC2)c(C)c1,35.7
2,CCN1C(=O)C2(CCOCC2)c2cc(NC(=O)c3csnn3)ccc21,8.75
3,CCc1ncc(-c2nccn2-c2cccc(CC(=O)O)c2)cn1,-11.5
4,CN(Cc1ccccc1NCc1cccnc1)C(=O)c1cccs1,-2.02
5,COc1cc(N2CC3(CCN(S(=O)(=O)C4CC4)C3)C2)ncn1,-7.2
6,N#Cc1ccnc(N2CCN(C(=O)Cc3ccc4c(c3)CCO4)CC2)c1,-7.76
7,COc1ccsc1C(=O)Nc1cc(Cl)c(=O)n(C)c1,-5.8
8,Cc1nccn1C1CCCN(C(=O)c2ccc3c(c2)nc(C)n3C)C1 (stereo unspecified),-3.08
9,CCCOc1ccc(C(=O)N[C@@H]2CCNC[C@H]2O)cc1Cl,2.76
10,CC(=O)NC1CCCN(Cc2csc(-c3ncccn3)n2)C1 (stereo unspecified),18.7
11,CC(C)(O)CCc1ccc(C(=O)N2CCN(CC3CCCC3)CC2)cc1,4.24
12,O=S(=O)(c1cccnc1)N1CCCCC1CCN1CCOCC1 (stereo unspecified),23.1
13,Cc1cnnn1Cc1nnn2c1CN(Cc1cccs1)CCC2,-1.92
14,CC(O)c1cnn(-c2ccccc2)c1 (stereo unspecified),45.1
15,Cc1nc(N(C)C)ncc1C(=O)NCCc1csc(-c2cnccn2)n1,-6.1
16,Cn1cc(C2CCCN2Cc2csc(-c3ccccc3)n2)cn1 (stereo unspecified),-7.14
17,CN(C)CCCN(CCC#N)C(=O)Nc1ccc2[nH]ccc2c1,-4.34
18,Cc1nc(C)n(CC2CCCN2CCCc2ccccc2)n1 (stereo unspecified),-6.68
19,COCCn1cnnc1Cn1ccnc1-c1ccoc1,27.2
20,Cc1cnn(CC(=O)NCC2CCN(c3cc(Cl)ccc3C)C2)c1 (stereo unspecified),6.3
21,CC(C)c1noc(C(C)S(=O)(=O)CC(=O)N2CCCC2)n1 (stereo unspecified),17.4
22,Cc1noc(C)c1-c1cccc(C2CCCNC2)n1 (stereo unspecified),2.18
23,O=C(NC1(c2nccs2)CCCC1)c1[nH]nc(C2CC2)c1Cl,3
24,CCN1CCNC(=O)C12CCN(S(=O)(=O)c1ccc(OC)cc1)CC2,-7.91

row,SMILES,cytotoxicity at 70.5 h [%]
1,COC1COC2(CCN(C(=O)c3cocn3)CC2)C1 (stereo unspecified),-8.06
2,COC1CN(C(=O)CC2CCCC2)CCC(=O)N(C)c2ccccc21 (stereo unspecified),21.5
3,CN1CCN(CCOc2ccc(NC(=O)c3cnc[nH]3)cc2)CC1,6.08
4,COCCN(CC1CCCO1)C(=O)CCNC(=O)c1ccccc1F (stereo unspecified),-13.6
5,CCCNCc1cn(Cc2ccccc2)nc1-c1cccnc1,-8.99
6,Cc1ccc(S(=O)(=O)NCC(O)c2ccoc2)s1 (stereo unspecified),-12.5
7,Cn1ncc(NC(=O)Cn2ccc(-c3ccc(F)cc3)n2)n1,0.148
8,CC(C)CNC(=O)c1nn(C)c(NC(=O)Cc2ccccc2)c1F,-9.39
9,CSCC(C)(O)CNS(=O)(=O)c1ccc(F)cc1 (stereo unspecified),-7.51
10,CC(NC(=O)COC1CCCC1)c1nc(-c2ccccc2)c[nH]1 (stereo unspecified),-1.37
11,Nc1cc(C(=O)N2CCCC(C(=O)CCc3ccccc3)C2)ccn1 (stereo unspecified),-3.17
12,CC(C(=O)N1CCN(c2ncccn2)CC1)n1cncn1 (stereo unspecified),-9.39
13,CC(C)Cn1cnnc1C1CCCN1C(=O)c1cc2ccccn2c1 (stereo unspecified),14.5
14,O=C(c1cnccn1)N1CCCC(Cc2ccccn2)C1 (stereo unspecified),4.02
15,COc1ccccc1OCCCc1cc(C)nc(N)n1,-7.2
16,OC(CN1CC(n2cccn2)C1)c1ccc2c(c1)OCCO2 (stereo unspecified),-3.2
17,COC(=O)C(C)(C)S(=O)(=O)c1ccc(Br)cc1,-1.38
18,Cc1nc2c(c(NC(C)C)n1)CCN(Cc1cccnc1)CC2,4.65
19,CNS(=O)(=O)c1ccc(CN2CCCN(Cc3ccncc3)CC2)cc1,16.9
20,CN1N=C(C(=O)N2CCCC(CCc3ccccc3)C2)CCC1=O (stereo unspecified),-9.61
